Where “and” joins values, the source holds several entries; their conditions need not be identical. Equal entries are not always repeated.
Legend:
Kir4.1 cKO mice = experiment: NSFT in astrocyte-specific Kir4.1 cKO mice; format: in vivo; settings: 10 mg kg−1 i.p.
Source text: Male C57BL/6J mice (6–10 weeks old) and male CD‐1 mice (4–6 months old) were purchased from Shanghai Shengchang Biotechnology Co., Ltd. Kcnj10 ^flox/flox mice were generated by the Cyagen Company (Suzhou, China). The Cas9 protein, two gRNAs (gRNA‐A1: […], gRNA‐A2: […]) and a donor vector containing two loxP sequences flanking exon 2 of mouse Kcnj10 were co‐injected into fertilized eggs. The embryos were transferred to recipient female mice to obtain F0 mice. The genotype was confirmed by PCR using two pairs of primers (F1: 5’‐[…]‐3’, R1: 5’‐[…]‐3’; F2: 5’‐[…]‐3’, R2: 5’‐[…]‐3’) and sequencing. The F0 founder mice were mated with C57BL/6J mice to produce heterozygous F1 offspring. Subsequent intercrosses of F1 heterozygous mice ultimately produced F2 homozygous mice with the Kcnj10 ^flox/flox genotype. Tamoxifen‐induced conditional transgenic mice with Kir4.1 deletion in astrocytes were generated by crossing Aldh1l1‐Cre/ERT2 mice with homozygous Kcnj10 ^flox/flox mice.^[ [32] ^] […]
The mice were individually housed in new cages and deprived of food for 24 h. […] The latency to start chewing food was recorded within 5 min. Immediately thereafter, the mice were placed back in their home cage with pre‐measured food, and the amount consumed in the next 5 min was used as a baseline to account for appetite changes that might affect the outcome.

[1] = system: primary cortical astrocytes (native Kir4.1 channels); experiment: Patch clamp of primary cultured WT astrocytes (native Kir4.1); format: cell-based, mouse
Method: Astrocytes were isolated and cultured as previously described.^[ [16] ^] Briefly, the cortices from P1‐P4 mouse pups were dissected and incubated for 25 min in Hank's Balanced Salt Solution (22.5 ml) with 2.5% trypsin (2.5 ml) at 37 °C. Cells were dissociated in cultured medium (DMEM/F12 supplemented with 10% fetal bovine serum and 1% penicillin and streptomycin) and filtered with a 70‐µm cell strainer. Cell suspensions were cultured in PDL‐pretreated 75‐cm^2 flasks for the initial seven days, with half of the medium replaced every 2 days. Subsequently, the cultures were shaken at 220 rpm for 6 h at 37 °C to remove microglia and oligodendrocytes from the astrocyte layers. The astrocytes were harvested, reseeded in two new flasks, and cultured in an incubator for 14 days. For Kir4.1 deletion in cell cultures, 4‐OH tamoxifen (final concentration: 1 µM, Felixbio) was added into Kir4.1^flox/flox: Aldh1l1‐Cre/ERT2 cortical cultures at DIV 2 and DIV 4, respectively, and completely removed at DIV7 when astrocytes were reseeded in fresh culture medium.
Whole‐cell patch‐clamp recordings were obtained either in transiently transfected CHO‐K1 cells or in primary cultured astrocytes at room temperature using standard patch‐clamp techniques with an Axopatch‐700B amplifier (Axon Instruments). The signals were filtered at 2 kHz and sampled at 20 kHz using the Digidata 1440A interface (Axon Instruments). The resistance of borosilicate glass pipettes was typically 2–4 MΩ when filled with the internal solution. Drug application was facilitated using a BPS perfusion system (ALA Scientific Instruments). Macroscopic currents generated by expressed potassium channels were recorded under the voltage‐clamp conditions with an internal pipette solution composed of (in mM): 140 KCl, 5 NaCl, 1 CaCl2, 1 MgCl2, 10 HEPES, and 10 EGTA, pH 7.2 adjusted with KOH. The external solution contained (in mM): 140 NaCl, 5 KCl, 2 CaCl2, 1 MgCl2, 10 glucose, and 10 HEPES, pH 7.4 adjusted with NaOH. Currents were elicited with a hyperpolarized voltage at −120 mV from the holding potential of −80 mV, followed by a ramp voltage depolarizing to +50 mV. Astrocytic resting membrane potentials were recorded under current‐clamp conditions (I = 0 pA) using standard internal and external solutions, determined immediately after achieving whole‐cell mode.

[2] = target: T1, 5-HTT (serotonin transporter, SERT) (Homo sapiens, UniProt P31645); experiment: 5-HTT functional assay (fluorescent neurotransmitter transporter uptake); format: cell-based; design: SERT inhibition, replicates: unit not given here
T1 construct: expressed in transfected cells
Method: (§1) The 5‐HTT/DAT functional assays were commissioned by Elsevier Science and Technology Co., Ltd. (Beijing). A fluorescence‐based neurotransmitter assay was conducted using a Neurotransmitter Transporter Uptake Assay Kit (Molecular Devices, R8174), according to the manufacturer's protocol. Flp‐in T‐rex 293 cells transiently expressing the human norepinephrine transporter and HEK293 cells stably expressing the human dopamine or serotonin transporters were seeded in PDL‐coated 384‐well plates and incubated overnight. Subsequently, the medium was removed, and the cells were treated with 16 µL of compounds diluted in assay buffer for 0.5 h at 37 °C. Centanafadine and 0.1% DMSO served as positive and negative controls, respectively. Then, 16 µL of dye mix prepared in 1× Hanks’ Balanced Salt Solution was added to each well and incubated at 37 °C for 1 h. Finally, the data point was acquired via a fluorescence plate reader with excitation at 450 nm and emission at 528 nm.

mice = experiment: Acute forced swim test (FST); format: in vivo; settings: 30 and 60 mg kg−1
Method: Mice were placed individually in a transparent glass cylinder (25 cm high, 10 cm wide) filled with water (temperature 23–25 °C) to a depth of 10 cm, and prevented from making contact with the bottom. Mice behaviors were videotaped from each side. The observation period lasted for 6 min, with the final 4 min used to measure immobile behavior, which was processed using the AnyMaze Tracking System (Stoelting).

[3] = target: T2, DAT (dopamine transporter) (Homo sapiens, UniProt Q01959); experiment: DAT functional assay (fluorescent neurotransmitter transporter uptake); format: cell-based; design: DAT inhibition, replicates: unit not given here
T2 construct: expressed in transfected cells
Method: as §1

[4] = concentration 100000 (unit not given)

T2 sequence (Q01959 whole entry): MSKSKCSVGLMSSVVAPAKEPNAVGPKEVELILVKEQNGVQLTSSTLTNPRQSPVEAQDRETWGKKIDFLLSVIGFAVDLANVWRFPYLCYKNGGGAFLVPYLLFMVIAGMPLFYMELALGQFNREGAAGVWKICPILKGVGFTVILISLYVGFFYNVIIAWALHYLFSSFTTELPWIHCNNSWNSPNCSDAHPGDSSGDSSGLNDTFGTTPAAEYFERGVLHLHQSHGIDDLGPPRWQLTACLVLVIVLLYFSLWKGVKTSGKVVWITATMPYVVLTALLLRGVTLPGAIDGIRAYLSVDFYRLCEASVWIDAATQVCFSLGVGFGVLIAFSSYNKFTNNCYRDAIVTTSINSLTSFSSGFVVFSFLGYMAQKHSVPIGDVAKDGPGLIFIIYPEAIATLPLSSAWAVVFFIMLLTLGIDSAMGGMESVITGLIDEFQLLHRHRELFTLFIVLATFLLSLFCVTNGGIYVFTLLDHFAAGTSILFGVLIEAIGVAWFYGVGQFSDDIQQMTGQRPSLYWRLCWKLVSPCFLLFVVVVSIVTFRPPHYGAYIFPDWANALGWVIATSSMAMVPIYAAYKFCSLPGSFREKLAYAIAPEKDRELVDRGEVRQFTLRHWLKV
T1 sequence (P31645 whole entry): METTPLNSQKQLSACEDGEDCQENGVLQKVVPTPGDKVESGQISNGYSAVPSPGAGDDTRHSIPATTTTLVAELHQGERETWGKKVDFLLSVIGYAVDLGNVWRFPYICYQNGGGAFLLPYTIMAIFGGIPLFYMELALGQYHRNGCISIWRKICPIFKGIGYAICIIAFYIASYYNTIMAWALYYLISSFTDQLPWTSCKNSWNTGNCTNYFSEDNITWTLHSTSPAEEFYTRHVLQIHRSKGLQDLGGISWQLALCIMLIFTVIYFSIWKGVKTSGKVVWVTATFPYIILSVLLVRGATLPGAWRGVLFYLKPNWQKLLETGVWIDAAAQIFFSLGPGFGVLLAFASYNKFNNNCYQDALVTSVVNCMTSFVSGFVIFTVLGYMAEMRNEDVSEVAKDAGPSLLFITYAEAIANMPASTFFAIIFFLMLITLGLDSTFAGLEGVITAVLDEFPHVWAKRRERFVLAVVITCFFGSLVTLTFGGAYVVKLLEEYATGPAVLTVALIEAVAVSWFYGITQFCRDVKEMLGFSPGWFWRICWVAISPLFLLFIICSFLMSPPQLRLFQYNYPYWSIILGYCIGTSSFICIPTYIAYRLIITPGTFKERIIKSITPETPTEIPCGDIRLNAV

c1ccc2c(c1)oc1ccc(Nc3ccnc(NCCCN4CCOCC4)n3)cc12 [JX3212, N^4-(dibenzo[b,d]furan-2-yl)-N^2-(3-morpholinopropyl)pyrimidine-2,4-diamine]
NSFT latency in Kir4.1 cKO mice vs vehicle (in words) (Kir4.1 cKO mice): comparable latencies | astrocytic resting membrane potential (in words) ([1]; JX3212 3 µM, BaCl2 100 µM): marked depolarization | astrocytic macroscopic slope conductance (in words) ([1]; WT astrocytes, 3 µM): partially impaired the macroscopic slope conductance | astrocytic potassium currents (in words) ([1]; WT astrocytes, 3 µM): notably decreased potassium currents | IC50 [2]: 6.45 µM | SERT inhibition, replicates ([2]; concentration 3): 13.3 and 7.67 | SERT inhibition, replicates ([2]; concentration 10): 17.62 and 13.2 | SERT inhibition, replicates ([2]; concentration 30): 16.11 and 14.3 | SERT inhibition, replicates ([2]; concentration 100): 16.51 and 15.81 | SERT inhibition, replicates ([2]; concentration 300): 18.52 and 16.01 | SERT inhibition, replicates ([2]; concentration 1000): 49.66 and 31.98 | SERT inhibition, replicates ([2]; concentration 3000): 51.87 and 29.87 | SERT inhibition, replicates ([2]; concentration 10000): 69.95 and 46.05 | SERT inhibition, replicates ([2]; concentration 30000): 87.23 and 70.86 | SERT inhibition, replicates [2, 4]: 112.04 and 105.72 | immobility time in acute FST (in words) (mice): significantly reducing immobility time | IC50 [3]: 5.2 µM | DAT inhibition, replicates ([3]; concentration 3): -3.23 and -17.79 | DAT inhibition, replicates ([3]; concentration 10): -5 and -8.74 | DAT inhibition, replicates ([3]; concentration 30): 1.89 and -0.08 | DAT inhibition, replicates ([3]; concentration 100): -1.46 and -1.85 | DAT inhibition, replicates ([3]; concentration 300): -3.23 and -0.87 | DAT inhibition, replicates ([3]; concentration 1000): 32 | DAT inhibition, replicates ([3]; concentration 3000): 70.17 and 28.06 | DAT inhibition, replicates ([3]; concentration 10000): 80.01 and 56.79 | DAT inhibition, replicates ([3]; concentration 30000): 99.88 and 90.83 | DAT inhibition, replicates [3, 4]: 110.9 and 109.92

Source: paper PMC12903969, “Discovery of a Novel and Potent Kir4.1 Inhibitor as a Safe and Rapid‐Onset Antidepressant Agent in Mice” (Advanced Science, 2025)
